Measured values from patent publication US20240216335A1, “COMPOSITION FOR INCREASING LEUKOCYTES AND/OR BASOPHILS” (SUNTORY HOLDINGS LIMITED, priority 2021, published 2024).

Experiments:
[1] = test system: IL-6, IL-12p40, IL-1β, and IL-10; settings: absence of the TLR ligand, ergothioneine concentration 0 or 10 mM; cited from earlier work
[2] = mice orally administered with ergothioneine vs mice not administered; cited from earlier work
[3] = biological target: T1, recombinant human epidermal growth factor receptor (EGFR) tyrosine kinase (Homo sapiens, UniProt P00533); assay: Evaluation of activity to inhibit substrate binding of EGFR tyrosine kinase ([32P]Poly(Glu:Tyr) formation, Eurofins Panlabs); format: biochemical; settings: 100 or 1000 μM L-ergothioneine, HEPES buffer pH 7.4, 37° C., 10 μM ATP, 0.2 mg/mL Poly(Glu:Tyr)
T1 construct: host or cells: insect cells
Procedure: The study was commissioned to Eurofins Panlabs. The study was performed using recombinant human epidermal growth factor receptor (EGFR) tyrosine kinase expressed in insect cells. First, epidermal growth factor receptor (EGFR) tyrosine kinase (0.134 μg/mL) was incubated in HEPES buffer (pH 7.4) with 100 or 1000 μM L-ergothioneine at 37° C. for 15 minutes. Then, 0.2 mg/mL Poly(Glu:Tyr), 10 μM ATP, and 0.25 μCi [γ^32P] ATP were added. Thereby, an enzymatic reaction was initiated. After incubating at 37° ° C. for 30 minutes, 3% H3PO4 was added to terminate the reaction. Lastly, the activity of ergothioneine to inhibit substrate binding was evaluated using the amount of [^32P]Poly(Glu:Tyr) formed in the reaction as an index.

[4] = test system: blood leukocytes and basophils; assay: Study on evaluation of blood leukocyte count and basophil count in humans (placebo-controlled, randomized, double-blind, parallel-group); format: in vivo; settings: one capsule with 20 mg L-ergothioneine per day orally for four weeks, week 4 vs pre-testing, compared with control food group
Procedure: In order to evaluate the influence of supplements containing ergothioneine on blood leukocyte count and basophil count in humans, a placebo-controlled, randomized, double-blind, parallel-group study was conducted on subjects including male and female adults (46 subjects in a test food group; 46 subjects in a control food group; 92 subjects in total). In this study, one capsule containing 20 mg ergothioneine (test food) or one capsule not containing ergothioneine (control food) was fed per day for four weeks. The blood leukocyte count and basophil count in each subject were measured for pre-testing before starting the study (before starting ingestion of the test food or control food). After ingestion of the test food or control food for four weeks, the blood leukocyte count and basophil count in each subject were measured again (testing on week 4). […] Specifically, the amount of change in the test food group at the time of testing on week 4 was determined for the test food group by subtracting the blood leukocyte count (average) at the time of pre-testing from the blood leukocyte count (average) at the time of testing on week 4. Similarly, the amount of change at the time of testing on week 4 was determined for the control food group by subtracting the blood leukocyte count (average) at the time of pre-testing from the blood leukocyte count (average) at the time of testing on week 4. […]

T1 sequence (P00533 25-1210): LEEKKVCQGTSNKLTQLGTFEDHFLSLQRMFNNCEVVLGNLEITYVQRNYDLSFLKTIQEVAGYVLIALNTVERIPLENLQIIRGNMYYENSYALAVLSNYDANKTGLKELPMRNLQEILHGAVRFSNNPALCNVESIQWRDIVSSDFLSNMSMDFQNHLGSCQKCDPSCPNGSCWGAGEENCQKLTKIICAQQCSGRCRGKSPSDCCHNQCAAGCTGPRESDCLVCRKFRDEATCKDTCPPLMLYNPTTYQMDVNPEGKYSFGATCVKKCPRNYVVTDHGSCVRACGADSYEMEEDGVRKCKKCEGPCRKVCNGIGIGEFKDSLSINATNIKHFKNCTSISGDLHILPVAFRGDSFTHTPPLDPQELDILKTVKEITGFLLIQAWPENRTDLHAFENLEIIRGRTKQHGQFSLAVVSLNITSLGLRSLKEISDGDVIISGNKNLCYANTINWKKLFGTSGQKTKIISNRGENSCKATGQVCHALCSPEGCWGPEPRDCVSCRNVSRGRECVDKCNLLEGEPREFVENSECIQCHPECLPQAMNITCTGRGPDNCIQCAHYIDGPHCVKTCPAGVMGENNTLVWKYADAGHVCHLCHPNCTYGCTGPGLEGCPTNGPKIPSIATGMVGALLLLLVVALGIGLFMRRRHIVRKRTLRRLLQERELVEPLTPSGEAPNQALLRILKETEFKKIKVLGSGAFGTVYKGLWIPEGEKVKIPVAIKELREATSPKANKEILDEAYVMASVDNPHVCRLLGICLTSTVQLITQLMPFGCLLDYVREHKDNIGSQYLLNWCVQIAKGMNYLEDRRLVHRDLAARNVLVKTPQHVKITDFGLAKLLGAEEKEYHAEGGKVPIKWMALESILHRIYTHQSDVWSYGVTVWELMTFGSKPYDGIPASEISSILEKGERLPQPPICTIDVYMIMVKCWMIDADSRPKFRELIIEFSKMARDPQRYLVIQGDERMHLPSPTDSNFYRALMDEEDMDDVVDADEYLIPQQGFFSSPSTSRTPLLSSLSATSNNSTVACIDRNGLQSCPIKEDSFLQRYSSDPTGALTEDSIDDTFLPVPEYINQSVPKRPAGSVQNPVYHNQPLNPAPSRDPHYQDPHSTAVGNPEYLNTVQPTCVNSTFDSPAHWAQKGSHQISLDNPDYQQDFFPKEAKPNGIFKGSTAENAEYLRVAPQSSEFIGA

In the case of `C[N+](C)(C)[C@@H](Cc1c[nH]c(=S)[nH]1)C(=O)[O-]` [L-ergothioneine], the “detection of IL-6, IL-12p40, IL-1β, and IL-10” value [1] is listed as “none of IL-6, IL-12p40, IL-1β, and IL-10 was detected”, the peritesticular fat weight [2] is listed as “lower” and the “triglyceride (neutral fat) level in plasma” value [2] is listed as “lower”. For the same compound, the “activity to inhibit substrate binding of epidermal growth factor receptor (EGFR) tyrosine kinase” value [3] was “showed an activity to inhibit substrate binding”, the “amount of change in blood basophil count (Δ in basophils (%))” value [4] was “significantly increased” and the “amount of change in blood leukocyte count (Δ in leukocytes (cells/μL))” value [4] was “significantly increased”.
